Measured values: patent US5370770A, “Method for deinking printed waste paper using soybean peroxidase” (priority 1992, dated 1994)

Tests used:
Soybean Peroxidase (SBP) = Soybean Peroxidase (SBP) (Glycine max, UniProt O22443); test: Oxidation of methoxybenzene substrates by soybean peroxidase (redox potential comparison); type: biochemical; conditions: absorbance change at substrate λmax
Description: (§1) Any of a variety of peroxidases can be used in the present invention.
(§2) *all values in Δ Abs/(mg enzymemin).
**curve of ΔAbs/time slopes upward as reaction proceeds.

[1] = target: T1, Horseradish Peroxidase (HRP) (Armoracia rusticana, UniProt P00433); test: Oxidation of methoxybenzene substrates by horseradish peroxidase (redox potential comparison); type: biochemical; conditions: absorbance change at substrate λmax
T1 sequence (P00433 31-353): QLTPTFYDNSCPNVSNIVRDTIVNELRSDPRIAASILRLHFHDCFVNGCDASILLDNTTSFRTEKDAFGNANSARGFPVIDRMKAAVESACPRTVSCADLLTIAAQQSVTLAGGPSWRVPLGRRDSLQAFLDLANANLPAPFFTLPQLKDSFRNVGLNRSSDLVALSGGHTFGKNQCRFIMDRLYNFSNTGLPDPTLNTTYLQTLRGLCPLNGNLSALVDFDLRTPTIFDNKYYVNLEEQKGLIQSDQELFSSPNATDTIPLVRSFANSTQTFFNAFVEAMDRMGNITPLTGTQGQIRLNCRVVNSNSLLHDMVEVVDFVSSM
Description: as §1, §2

[2] = Half-wave redox potential of substrates; type: physicochemical; conditions: redox potential of substrate

Soybean Peroxidase (SBP), sequence (O22443 27-332): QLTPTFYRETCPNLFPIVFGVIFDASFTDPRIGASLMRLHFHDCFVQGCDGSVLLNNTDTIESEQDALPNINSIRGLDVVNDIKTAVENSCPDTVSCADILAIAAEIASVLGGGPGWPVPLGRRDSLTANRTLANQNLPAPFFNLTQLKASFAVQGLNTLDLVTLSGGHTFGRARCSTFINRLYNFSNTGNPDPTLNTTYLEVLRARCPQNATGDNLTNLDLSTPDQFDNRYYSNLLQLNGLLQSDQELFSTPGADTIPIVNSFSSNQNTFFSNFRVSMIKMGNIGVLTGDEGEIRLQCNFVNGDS

Compound | SBP (Soybean Peroxidase (SBP)) | HRP [1] | E1/2 (V) [2] [V]
COc1cc(OC)c(OC)c(OC)c1OC [pentamethoxybenzene] | 8.76 Δ Abs/(mg enzymemin) | 2.50 Δ Abs/(mg enzymemin) | 1.07
COc1cc(OC)c(OC)c(OC)c1 [1,2,3,5-tetramethoxybenzene] | 3.02 Δ Abs/(mg enzymemin) | 0.30 Δ Abs/(mg enzymemin) | 1.09
COc1ccc(OC)cc1 [1,4-dimethoxybenzene] | 0.072 Δ Abs/(mg enzymemin) | 0 Δ Abs/(mg enzymemin) | 1.34
COc1c(OC)c(OC)c(OC)c(OC)c1OC [hexamethoxybenzene] | 0.22 Δ Abs/(mg enzymemin) | 0 Δ Abs/(mg enzymemin) | 1.24
COc1ccc(OC)c(OC)c1 [1,2,4-trimethoxybenzene] | 9.23 Δ Abs/(mg enzymemin) | 1.64 Δ Abs/(mg enzymemin) | 1.12
